Reference: patent publication EP4591860A1, “OPHTHALMIC PHARMACEUTICAL COMPOSITION FOR THE PREVENTION AND TREATMENT OF DRY EYE SYNDROME” (FB Vision S.p.A., priority 2024, dated 2025)
“Also recorded” adds a separate entry of the source.

Key:
Assay type in all cases: cell-based, human
[1] = test system: TNF-α; test: LPS-stimulated cytokine secretion in HCEC (ELISA); conditions: 500 ng/mL LPS 24-hour; preincubation 1h; 100 µg/ml each, combination in 1/1 ratio
Description: (§1) IL-1b, IL-6 and TNF-a were detected with ELISA kits purchased from Abcam, Cambridge (MA) USA. Data are expressed as mean ± SEM, n=4; *p<0.001 with respect to LPS, **p<0.001 with respect to PGB or HA alone.
(§2) 24-hour exposure of HCECs to 500 ng/mL LPS induced maximal secretion of IL-1β, IL-6, and TNF-α, all of which are released in small amounts under basal conditions, as shown in Figure 22.

[2] = test system: IL-1β; test: LPS-stimulated cytokine secretion in HCEC (ELISA); conditions: 500 ng/mL LPS 24-hour; preincubation 1h; 100 µg/ml each, combination in 1/1 ratio
Description: as §1, §2

[3] = test system: IL-6; test: LPS-stimulated cytokine secretion in HCEC (ELISA); conditions: 500 ng/mL LPS 24-hour; preincubation 1h; 100 µg/ml each, combination in 1/1 ratio
Description: as §1, §2

[4] = test system: NF-kβ p65; test: NF-kβ p65 DNA binding activity test (TransAM ELISA) in LPS-stimulated HCEC; conditions: 500 ng/ml LPS, 12 hours; PGB 100 µg/ml, HA 100 µg/ml or combination
Description: To evaluate the ability of the synergistic composition of the invention to inhibit NF-kβ activity in corneal cells, the NF-kβ p65 DNA Binging activity test was used with the ELISA kit of the TransAM p65 transcription factor (Active Motif, Carlsbad, CA).
HCEC cells were stimulated with 500 ng/ml LPS in the presence and absence of PGB 100 µg/ml, HA 100 µg/ml or a combination of PGB+HA for 12 hours, as described here.
Subsequently, the DNA binding activity of NF-kβ p65 was determined. 12 hours after stimulation with LPS markedly promoted the DNA-binding activity of NF-kβ p65 and the expression of the pro-inflammatory cytokines IL-1β, IL-6 and TNF-α.

[5] = test system: HCEC cells; test: MTT cell viability assay
Description: The primary culture of HCEC (cat. PCS-700-010) was purchased from the American Type Culture Collection (ATCC), Manassas, VA, USA.
The cells were resuspended in basal medium for corneal epithelial cells (devoid of serum and calcium) and supplemented with a growth kit provided by ATCC.
The cells were seeded at a density of 8 × 10^3 cells/well in a 96-well plate and cultured overnight. The cells were then treated with PGB or HA at different concentrations for 24 hours or with empty medium (control). After gently washing them with PBS, the cells were incubated with 0.5 mg/ml MTT solution in the dark for 4 hours. After removing the supernatant, DMSO was added to solubilize the formazan. Absorbance at 570 nm was measured with an ELISA reader (Multiskan MK3) for cell viability.

CC(C)C[C@H](CN)CC(=O)O [PGB, (S)-3-(aminomethyl)-5-methylhexanoic acid]
LPS-stimulated secretion of TNF-α [1]: significantly reduced
LPS-stimulated secretion of IL-1β [2]: significantly reduced
LPS-stimulated secretion of IL-6 [3]: significantly reduced
DNA-binding activity of NF-kβ p65 [4]: lower DNA-binding activity
cell viability (MTT) ([5]; 24 hours, 1000 µg/ml): a certain reduction in cell viability
cell viability (MTT), toxicity ([5]; 24 hours, 10, 50, 100, 200 µg/ml): no evidence of toxicity; also recorded: did not show toxicity
